Measurements from patent US9764029B2, “Tumor proliferation inhibitor containing ultrasound-sensitive substance and method for inhibiting tumor proliferation by using tumor proliferation inhibitor and low-intensity pulsed ultrasound waves” (Fukuoka University, priority 2010, dated 2017).

Key:
[1] = tested on: human gastric cancer cell line MKN-74; test: Inhibitory effect on cancer at a specific site (subcutaneous tumor) of mice with MKN-74 tumor (Example 2); type: in vivo; conditions: DEG 5 μM in combination with Szd 16 μL in 200 μL PBS, intratumoral; ultrasound 1 W/cm^2, 1 MHz, 50% duty cycle, 10 minutes, three times on alternate days
Experimental: Mice were inoculated subcutaneously with ca. 5×10^6 cells of human gastric cancer cell line MKN-74 and a PBS suspension (200 μL) composed of the ultrasound-sensitive substance (DEG; 5 μM) and the acoustic cavitation phenomenon-enhancing substance (Szd; 16 μL) was administered intratumorally, followed by irradiating the mice with ultrasound waves of 1 W/cm^2 and 1 MHZ under a condition of 50% duty cycle for 10 minutes using Sonitron 100. The ultrasound waves were irradiated three times on alternate days. The results of the cancer sizes are shown by arrow mark (↑) in FIG. 4.

[2] = tested on: human gastric cancer cell line MKN-74; test: Ultrasonic treatment of SCID mice carrying subcutaneous MKN-74 cancer (Example 1); type: in vivo; conditions: DEG 5 μM + SONAZOID 16 μL in 300 μL saline, intratumoral; single treatment with low-intensity pulsed ultrasound 2 W/cm^2, 1 MHz, 50% duty cycle, 10 minutes; three weeks after treatment
Experimental: SCID mice as cancer-carrying animals were inoculated subcutaneously with human gastric cancer cell line MKN-74 which was in turn grown to a diameter of the cancer size of approximately 20 mm and then subjected to treatment by ultrasound waves. The ultrasonic treatment was carried out using the porphyrin derivative, [7,12-bis(1-(2-(2-hydroxyethoxy)ethoxy)ethyl)-3,8,13,17-tetramethylporphyrin-2,18-dipropionato]manganese (DEG), as the ultrasound-sensitive substance and an ultrasound contrast agent containing lipid stabilized perfluorobutane microbubbles in an aqueous solution (SONAZOID™) as the acoustic cavitation phenomenon-enhancing substance by irradiating the mice with low-intensity pulsed ultrasound waves of 2 W/cm^2 and 1 MHz under a condition of 50% duty cycle for 10 minutes. The ultrasonic treatment was performed by suspending 5 μM of the ultrasound sensitive substance and 16 μL of the acoustic cavitation phenomenon-enhancing substance in 300 μL of saline and irradiating the mice with the ultrasound waves immediately after intratumoral administration of the resulting suspension. The states of development of the cancer were observed immediately after ultrasonic treatment, one week and three weeks thereafter.

7,12-bis(1-(2-(2-hydroxyethoxy)ethoxy)ethyl)-3,8,13,17-tetra-methylporphyrin-2,18-dipropionato]manganese [DEG]
antitumor effect, one remaining case of three [1]: significant antitumor effect | antitumor effect, two cases out of three [1]: remarkable effects | state of development of the cancer (tumor size) [2]: dramatic regression of the cancer
